Test systems include NCI-H522 lung; SNB-19 CNS; NCI-H226 lung; SF-539 CNS; HS 578T breast; COLO 205 colon; SK-OV-3 ovarian; DU-145 prostate.
What all share (assay): DTP human tumour cell line panel, 48 h

SMILES strings stand for the structures.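 A five-concentration, 48-hour dose response in 96-well plates underlies each endpoint, interpolated linearly between surrounding concentrations. GI50 marks 50% less growth. TGI is the concentration that stops growth completely.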 Bounds are passed on as bounds.

As a reminder, the GI50 is the concentration giving 50% growth inhibition. For orientation: TGI means the concentration at which net growth stops. For the compound `COc1ccccc1-c1ccc2nc(NC(=O)Nc3cc(C(F)(F)F)cc(C(F)(F)F)c3)sc2c1`, the GI50 is 1.76 µM in the assay with NCI-H522 lung; 2.44 µM with SNB-19 CNS; 2.16 µM in the assay on NCI-H226 lung; 1.99 µM with SF-539 CNS; 2.35 µM with HS 578T breast; 1.65 µM with COLO 205 colon. Also, the GI50 in the assay with SK-OV-3 ovarian was 2.92 µM; with DU-145 prostate, 4 µM. The total growth inhibition concentration (TGI) was found to be 9.35 µM with NCI-H522 lung; 12.2 µM with SNB-19 CNS; 5.67 µM with NCI-H226 lung; 5.5 µM with SF-539 CNS; 7.67 µM with HS 578T breast; 3.92 µM with COLO 205 colon. The results for the concentration for total growth inhibition (TGI) in the assay on SK-OV-3 ovarian and with DU-145 prostate were 11.4 µM and 14.9 µM, respectively.
As for `O=C1OCC2=C1C(c1cccc(C(F)(F)F)c1)c1cc3c(cc1N2CCO)OCO3` (configuration not stated), the GI50 was 0.573 µM in the assay on NCI-H522 lung; 1.62 µM in the assay with SNB-19 CNS; 21.7 µM with NCI-H226 lung; 0.884 µM in the assay with SF-539 CNS; 3.01 µM in the assay with HS 578T breast; 1.18 µM in the assay with COLO 205 colon. Moreover, the GI50 in the assay with SK-OV-3 ovarian was 2.37 µM; in the assay with DU-145 prostate, 1.72 µM. The TGI was 2.16 µM in the assay on NCI-H522 lung; more than 50 µM in the assay on SNB-19 CNS; more than 50 µM with NCI-H226 lung; 2.73 µM with SF-539 CNS; more than 50 µM in the assay with HS 578T breast; 3.26 µM in the assay on COLO 205 colon. The TGI in the assay with SK-OV-3 ovarian and in the assay on DU-145 prostate was more than 50 µM in each case.
Regarding `Clc1ccccc1-c1nc(-c2ccncc2)no1`, the TGI with NCI-H522 lung, with SNB-19 CNS, in the assay with NCI-H226 lung, in the assay on SF-539 CNS, with HS 578T breast and in the assay with COLO 205 colon was more than 100 µM each time. In addition, the concentration for total growth inhibition (TGI) in the assay on SK-OV-3 ovarian and in the assay with DU-145 prostate was more than 100 µM in each case.
As to `Nc1c(S(=O)(=O)O)cc(Nc2cccc(S(N)(=O)=O)c2)c2c1C(=O)c1ccccc1C2=O`, the TGI in the assay with NCI-H522 lung is more than 100 µM; in the assay on SNB-19 CNS it was more than 100 µM; with NCI-H226 lung it was more than 100 µM; with SF-539 CNS it was more than 100 µM; with HS 578T breast, 69.9 µM; in the assay on COLO 205 colon it was more than 100 µM. Besides, the TGI was 84.6 µM with SK-OV-3 ovarian and more than 100 µM in the assay on DU-145 prostate.
With `Cc1cc(S(N)(=O)=O)c(S/C(=N\Nc2ccc([N+](=O)[O-])cc2)c2ccc(O)cc2)cc1Cl`, the GI50 is 6.07 µM in the assay with NCI-H522 lung; 4.46 µM with SNB-19 CNS; 2.67 µM in the assay with NCI-H226 lung; 3.39 µM with SF-539 CNS; 2.92 µM in the assay on HS 578T breast; 4.21 µM in the assay on COLO 205 colon. Moreover, the results for the GI50 in the assay on SK-OV-3 ovarian and with DU-145 prostate were 4.32 µM and 5.31 µM, respectively. The TGI in the assay on NCI-H522 lung is 43.5 µM; with SNB-19 CNS, 16.1 µM; with NCI-H226 lung it was 7.08 µM; in the assay with SF-539 CNS, 8.74 µM; with HS 578T breast it was 9.27 µM; in the assay with COLO 205 colon, 17.6 µM. In addition, the TGI with SK-OV-3 ovarian is 18.4 µM; with DU-145 prostate it was 23.9 µM.
On to `COc1cc(-c2cc(-c3nc4cc(Cl)c(Cl)cc4[nH]3)[nH]n2)cc(OC)c1OC`, for which the GI50 is 2.02 µM with NCI-H522 lung; 5.47 µM with SNB-19 CNS; 2.29 µM in the assay on NCI-H226 lung; 3.28 µM in the assay with SF-539 CNS; 4.53 µM in the assay on HS 578T breast; 3.77 µM in the assay with COLO 205 colon. In addition, the GI50 in the assay with SK-OV-3 ovarian was 17.3 µM; with DU-145 prostate it was 4.16 µM. The TGI was 5.66 µM in the assay with NCI-H522 lung; 22.2 µM in the assay on SNB-19 CNS; 8.8 µM in the assay with NCI-H226 lung; 13.4 µM in the assay with SF-539 CNS; more than 100 µM in the assay with HS 578T breast; 12.7 µM in the assay with COLO 205 colon. Moreover, the figures for the TGI in the assay on SK-OV-3 ovarian and with DU-145 prostate were 53 µM and 15.2 µM, respectively.
In the case of `CNS(=O)(=O)c1ccccc1C(=N)c1ccccc1`, the TGI with NCI-H522 lung, in the assay on SNB-19 CNS, in the assay on NCI-H226 lung, in the assay with SF-539 CNS, with HS 578T breast and in the assay with COLO 205 colon was more than 100 µM throughout. In addition, the TGI in the assay with SK-OV-3 ovarian and in the assay on DU-145 prostate was more than 100 µM throughout.
Consider `C=CC[N+]1(CCO)CCN=C1CCCCCCCCCCCCC` (configuration not stated), for which the GI50 with SNB-19 CNS was 1.63 µM; in the assay with NCI-H226 lung, 1.7 µM; in the assay with HS 578T breast, 1.58 µM; in the assay with COLO 205 colon, 1.7 µM; in the assay on SK-OV-3 ovarian, 1.73 µM; with DU-145 prostate, 1.6 µM. Further, the TGI came to 2.99 µM with SNB-19 CNS; 3.43 µM in the assay on NCI-H226 lung; 3.76 µM in the assay on HS 578T breast; 3.08 µM with COLO 205 colon; 3.14 µM with SK-OV-3 ovarian; 2.95 µM in the assay with DU-145 prostate.
Consider `O=C1c2ccccc2C(=O)c2c(NC(=O)C(Cl)CCl)cccc21` (configuration not stated), for which the TGI was 7.13 µM in the assay with NCI-H522 lung; 32.9 µM in the assay on SNB-19 CNS; 48.3 µM in the assay with NCI-H226 lung; 11.5 µM in the assay on SF-539 CNS; more than 100 µM with HS 578T breast; 26.9 µM in the assay with COLO 205 colon. Moreover, the TGI with SK-OV-3 ovarian was 39.1 µM; in the assay with DU-145 prostate, 24.6 µM.
`[C-]#[O+].[C-]#[O+].[Ir].[O-]c1ccc2ccccc2c1N=Nc1ccccc1`: the TGI was 4.01 µM with NCI-H522 lung; more than 70.7 µM in the assay with SNB-19 CNS; 31.9 µM with NCI-H226 lung; 50.4 µM with SF-539 CNS; more than 100 µM in the assay with HS 578T breast; 3.7 µM in the assay with COLO 205 colon. Besides, the TGI was more than 68 µM in the assay with SK-OV-3 ovarian and 31.9 µM with DU-145 prostate.
Take `CN1C(=O)N(C)C2C1NN=c1s/c(=C\c3c[nH]c4ccccc34)c(=O)n12` (configuration not stated): the GI50 was 0.0331 µM with NCI-H522 lung; 0.0443 µM in the assay with SNB-19 CNS; 0.143 µM in the assay on NCI-H226 lung; 0.0301 µM in the assay with SF-539 CNS; 0.0342 µM in the assay on HS 578T breast; 0.0363 µM in the assay on COLO 205 colon. For the same compound, the GI50 was 0.082 µM in the assay on SK-OV-3 ovarian and 0.0428 µM in the assay on DU-145 prostate. The TGI in the assay with NCI-H522 lung is 18.9 µM; in the assay on SNB-19 CNS it was more than 100 µM; in the assay with NCI-H226 lung it was more than 100 µM; with SF-539 CNS it was 55.9 µM; in the assay on HS 578T breast, more than 90.9 µM; in the assay with COLO 205 colon it was 0.564 µM. Further, the concentration for total growth inhibition (TGI) is more than 100 µM with SK-OV-3 ovarian and more than 28.9 µM in the assay on DU-145 prostate.

The record behind these values is PubChem BioAssay (NCI).
